Results taken from patent US10888576B2, “Composition of HMB and ATP and methods of use” (Metabolic Technologies, Inc., priority 2018, dated 2021).

Experiments:
Type in all cases: in vivo, human
creatine kinase (CK) = test: Serum creatine kinase (muscle damage), colorimetric; details: for effect on training-induced increase in CK: compared with placebo, initiation of training and overreaching cycle; for CK: Mean ± SEM
Experimental: (§1) Prior to the study, participants were randomly assigned to receive either 3 g per day of HMB Free Acid (HMB) (combined with food-grade orange flavors and sweeteners), 400 mg per day of ATP (PEAK ATP®; TSI, Inc.), a combination of both 3 g of HMB and 400 mg per day of ATP, or a placebo (food-grade orange flavors and sweeteners) divided equally into three servings daily with the first serving given 30 minutes prior to exercise and the remaining two servings daily with the mid-day and evening meals. On the non-training days participants were instructed to consume one serving with each of three separate meals. The supplementation was continued daily throughout the training and testing protocols. Each serving was formulated with 1 gram of HMB free acid to account for fill and emptying variation and achieve a minimum effective dosage of 0.800 grams. This dosage would be equivalent to a 1 gram Ca-HMB dosage.
(§2) All blood draws throughout the study were obtained via venipuncture after a 12-hour fast by a trained phlebotomist. Whole blood was collected and transferred into appropriate tubes for obtaining serum and plasma and centrifuged at 1,500 g for 15 min at 4° C. Resulting serum and plasma were then aliquoted and stored at −80° C. until subsequent analyses.
(§3) Samples were thawed one time and analyzed in duplicate for each analyte. All blood draws were scheduled at the same time of day to negate confounding influences of diurnal hormonal variations. Serum total and free testosterone, cortisol, and C-reactive protein (CRP) were assayed via ELISA kits obtained from Diagnostic Systems Laboratories (Webster, Tex.). All hormones were measured in the same assay on the same day to avoid compounded interassay variance. […] Serum creatine kinase (CK) was measured using colorimetric procedures at 340 nm (Diagnostics Chemicals, Oxford, Conn.). Twenty-four hour urine collections were made and 3-methylhistine was determined by previously described methods (Rathmacher et al 1992 and Wilson et al, 2013).

free testosterone = test: Serum free testosterone ELISA; details: for effect on free testosterone: main effect; for Free Testosterone: Mean ± SEM
Experimental: as §1, §2, §3

resistance-trained males [1] = test: Body composition (weight, lean body mass, fat) by dual x-ray absorptiometry, 12-week resistance training study
urinary 3-MH:Cr ratio = test: 24 h urinary 3-methylhistidine:creatinine ratio (muscle protein degradation); details: Mean ± SEM
Experimental: as §1, §3
The rate of muscle protein degradation was evaluated by measuring urinary 3-MH:Cr ratio (Table 6).

resistance-trained males [2] = test: Perceived Recovery Status (PRS) scale; details: for effect on PRS: 12-week study, vs placebo; for PRS (perceived recovery score): scale of 0-10, Mean ± SEM
Experimental: as §1
[…] The PRS scale consists of values between 0-10, with 0-2 being very poorly recovered and with anticipated declines in performance, 4-6 being low to moderately recovered and expected similar performance, and 8-10 representing high perceived recovery with expected increases in performance.

resistance-trained males [3] = test: Vertical jump peak power on force platform; details: for vertical jump power increase: over the 12-weeks of training; for decrease in vertical jump power during the overreaching cycle: over weeks 9 and 10
Experimental: Measurements of PP were also taken during a vertical jump (VJ) test performed on a multi-component AMTI force platform (Advanced Mechanical Technology, Inc., Watertown, Mass.), interfaced with a personal computer at a sampling rate of 1000 Hz (51). Data acquisition software (LabVIEW, version 7.1; National Instruments Corporation, Austin, Tex.) was used to calculate PP. Peak power was calculated as the peak combination of ground reaction force and peak velocity during the accelerated launch on the platform. The ICC of VJ power was 0.97. Prior to the study, participants were randomly assigned to receive either 3 g per day of HMB Free Acid (HMB) (combined with food-grade orange flavors and sweeteners), 400 mg per day of ATP (PEAK ATP®; TSI, Inc.), a combination of both 3 g of HMB and 400 mg per day of ATP, or a placebo (food-grade orange flavors and sweeteners) divided equally into three servings daily with the first serving given 30 minutes prior to exercise and the remaining two servings daily with the mid-day and evening meals. On the non-training days participants were instructed to consume one serving with each of three separate meals. The supplementation was continued daily throughout the training and testing protocols. […] This dosage would be equivalent to a 1 gram Ca-HMB dosage. All participants performed a high volume resistance training protocol during the 12-week study. The phases of the study and measurements taken are shown in FIG. 1, and the exercise protocols for each phase of the study are shown in Tables 1 to 3. The training was divided into 3 phases, with Phase 1 consisting of daily undulating periodization (weeks 1 to 8), Phase 2 consisting of the overreaching cycle (weeks 9 and 10), and Phase 3 consisting of the taper cycle (weeks 11 and 12).

C-reactive protein (CRP) = test: Serum C-reactive protein ELISA; details: Mean ± SEM
Experimental: as §1, §2, §3

SMILES: CC(C)(O)CC(=O)O [HMB-FA, β-hydroxy-β-methylbutyric acid]
- effect on training-induced increase in CK (creatine kinase (CK)): significantly attenuated the increase in CK
- CK (creatine kinase (CK); week 0 (baseline)): 158 ± 16 IU/L
- CK (creatine kinase (CK); week 1): 322 ± 35 IU/L
- CK (creatine kinase (CK); week 4): 280 ± 22 IU/L
- CK (creatine kinase (CK); week 8): 255 ± 28 IU/L
- CK (creatine kinase (CK); week 9 (overreaching)): 288 ± 18 IU/L
- CK (creatine kinase (CK); week 10 (overreaching)): 250 ± 14 IU/L
- CK (creatine kinase (CK); week 12): 147 ± 15 IU/L
- effect on free testosterone (free testosterone): no main effect differences
- Free Testosterone (free testosterone; week 0 (baseline)): 109 ± 10 ng/dL
- Free Testosterone (free testosterone; week 1): 104 ± 8 ng/dL
- Free Testosterone (free testosterone; week 4): 116 ± 11 ng/dL
- Free Testosterone (free testosterone; week 8): 115 ± 9 ng/dL
- Free Testosterone (free testosterone; week 9 (overreaching)): 118 ± 8 ng/dL
- Free Testosterone (free testosterone; week 10 (overreaching)): 116 ± 8 ng/dL
- Free Testosterone (free testosterone; week 12): 127 ± 8 ng/dL
- Lean body mass increase (resistance-trained males [1]; 12-week study): 7.4 ± 0.4 kg
- fat percentage decrease (resistance-trained males [1]; 12-week study): 7.0±0.6%
- DXA Fat (resistance-trained males [1]; week 0 (baseline)): 20.4 ± 1.4%
- DXA LBM (resistance-trained males [1]; week 0 (baseline)): 66.2 ± 2.6 kg
- Weight (resistance-trained males [1]; week 0 (baseline)): 83.1 ± 2.8 kg
- DXA Fat (resistance-trained males [1]; week 4): 17.6 ± 1.4%
- DXA LBM (resistance-trained males [1]; week 4): 69.2 ± 2.7 kg
- Weight (resistance-trained males [1]; week 4): 83.9 ± 2.8 kg
- DXA Fat (resistance-trained males [1]; week 8): 15.9 ± 1.5 %
- DXA LBM (resistance-trained males [1]; week 8): 71.3 ± 2.7 kg
- Weight (resistance-trained males [1]; week 8): 84.8 ± 2.9 kg
- DXA Fat (resistance-trained males [1]; week 12): 13.5 ± 1.5 %
- DXA LBM (resistance-trained males [1]; week 12): 73.5 ± 2.7 kg
- Weight (resistance-trained males [1]; week 12): 85.0 ± 3.0 kg
- 24 h 3MH:Cr (urinary 3-MH:Cr ratio; week 0 (baseline)): 0.127 ± 0.004 μmol:mg
- 24 h 3MH:Cr (urinary 3-MH:Cr ratio; week 1): 0.122 ± 0.002 μmol:mg
- 24 h 3MH:Cr (urinary 3-MH:Cr ratio; week 8): 0.124 ± 0.008 μmol:mg
- 24 h 3MH:Cr (urinary 3-MH:Cr ratio; week 9 (overreaching)): 0.120 ± 0.003 μmol:mg
- 24 h 3MH:Cr (urinary 3-MH:Cr ratio; week 10 (overreaching)): 0.141 ± 0.004 μmol:mg
- effect on PRS (resistance-trained males [2]): improved PRS
- PRS (perceived recovery score) (resistance-trained males [2]; week 0 (baseline)): 9.1 ± 0.3
- PRS (perceived recovery score) (resistance-trained males [2]; week 1): 6.3 ± 0.3
- PRS (perceived recovery score) (resistance-trained males [2]; week 4): 7.6 ± 0.3
- PRS (perceived recovery score) (resistance-trained males [2]; week 8): 8.5 ± 0.3
- PRS (perceived recovery score) (resistance-trained males [2]; week 9 (overreaching)): 8.0 ± 0.2
- PRS (perceived recovery score) (resistance-trained males [2]; week 10 (overreaching)): 7.7 ± 0.2
- PRS (perceived recovery score) (resistance-trained males [2]; week 12): 9.5 ± 0.2
- vertical jump power increase (resistance-trained males [3]): 991±51 watts
- decrease in vertical jump power during the overreaching cycle (resistance-trained males [3]): 1.4±0.4%
- CRP (C-reactive protein (CRP); week 0 (baseline)): 1.0 ± 0.1 mg/L
- CRP (C-reactive protein (CRP); week 1): 1.3 ± 0.3 mg/L
- CRP (C-reactive protein (CRP); week 4): 1.0 ± 0.1 mg/L
- CRP (C-reactive protein (CRP); week 8): 0.9 ± 0.01 mg/L
- CRP (C-reactive protein (CRP); week 9 (overreaching)): 1.0 ± 0.1 mg/L
- CRP (C-reactive protein (CRP); week 10 (overreaching)): 1.8 ± 0.8 mg/L
- CRP (C-reactive protein (CRP); week 12): 1.1 ± 0.1 mg/L

SMILES: Nc1ncnc2c1ncn2[C@@H]1O[C@H](COP(=O)(O)OP(=O)(O)OP(=O)(O)O)[C@@H](O)[C@H]1O [ATP, Adenosine-5′-triphosphate]
- effect on training-induced increase in CK (creatine kinase (CK)): did not attenuate the increases in CK
- CK (creatine kinase (CK); week 0 (baseline)): 145 ± 8 IU/L
- CK (creatine kinase (CK); week 1): 500 ± 71 IU/L
- CK (creatine kinase (CK); week 4): 324 ± 14 IU/L
- CK (creatine kinase (CK); week 8): 234 ± 32 IU/L
- CK (creatine kinase (CK); week 9 (overreaching)): 426 ± 44 IU/L
- CK (creatine kinase (CK); week 10 (overreaching)): 449 ± 62 IU/L
- CK (creatine kinase (CK); week 12): 160 ± 20 IU/L
- effect on free testosterone (free testosterone): no main effect differences
- Free Testosterone (free testosterone; week 0 (baseline)): 112 ± 13 ng/dL
- Free Testosterone (free testosterone; week 1): 114 ± 9 ng/dL
- Free Testosterone (free testosterone; week 4): 118 ± 6 ng/dL
- Free Testosterone (free testosterone; week 8): 117 ± 11 ng/dL
- Free Testosterone (free testosterone; week 9 (overreaching)): 108 ± 7 ng/dL
- Free Testosterone (free testosterone; week 10 (overreaching)): 110 ± 10 ng/dL
- Free Testosterone (free testosterone; week 12): 125 ± 13 ng/dL
- Lean body mass increase (resistance-trained males [1]; 12-week study): 4.0 ± 0.4 kg
- DXA Fat (resistance-trained males [1]; week 0 (baseline)): 19.5 ± 1.8%
- DXA LBM (resistance-trained males [1]; week 0 (baseline)): 67.7 ± 2.0 kg
- Weight (resistance-trained males [1]; week 0 (baseline)): 85.7 ± 1.7 kg
- DXA Fat (resistance-trained males [1]; week 4): 18.1 ± 1.8%
- DXA LBM (resistance-trained males [1]; week 4): 70.1 ± 1.9 kg
- Weight (resistance-trained males [1]; week 4): 86.9 ± 2.0 kg
- DXA Fat (resistance-trained males [1]; week 8): 16.6 ± 1.6%
- DXA LBM (resistance-trained males [1]; week 8): 71.4 ± 2.0 kg
- Weight (resistance-trained males [1]; week 8): 87.0 ± 2.0 kg
- DXA Fat (resistance-trained males [1]; week 12): 16.0 ± 1.5%
- DXA LBM (resistance-trained males [1]; week 12): 71.7 ± 1.9 kg
- Weight (resistance-trained males [1]; week 12): 87.0 ± 2.1 kg
- 24 h 3MH:Cr (urinary 3-MH:Cr ratio; week 0 (baseline)): 0.136 ± 0.008 μmol:mg
- 24 h 3MH:Cr (urinary 3-MH:Cr ratio; week 1): 0.127 ± 0.007 μmol:mg
- 24 h 3MH:Cr (urinary 3-MH:Cr ratio; week 8): 0.143 ± 0.007 μmol:mg
- 24 h 3MH:Cr (urinary 3-MH:Cr ratio; week 9 (overreaching)): 0.143 ± 0.008 μmol:mg
- 24 h 3MH:Cr (urinary 3-MH:Cr ratio; week 10 (overreaching)): 0.131 ± 0.012 μmol:mg
- effect on PRS (resistance-trained males [2]): improved PRS scores after the overreaching cycle at weeks 10 and 12
- PRS (perceived recovery score) (resistance-trained males [2]; week 0 (baseline)): 9.6 ± 0.2
- PRS (perceived recovery score) (resistance-trained males [2]; week 1): 4.9 ± 0.4
- PRS (perceived recovery score) (resistance-trained males [2]; week 4): 7.5 ± 0.3
- PRS (perceived recovery score) (resistance-trained males [2]; week 8): 8.2 ± 0.3
- PRS (perceived recovery score) (resistance-trained males [2]; week 9 (overreaching)): 5.5 ± 0.4
- PRS (perceived recovery score) (resistance-trained males [2]; week 10 (overreaching)): 5.5 ± 0.4
- PRS (perceived recovery score) (resistance-trained males [2]; week 12): 8.6 ± 0.4
- vertical jump power increase (resistance-trained males [3]): 796±75 watts
- decrease in vertical jump power during the overreaching cycle (resistance-trained males [3]): 2.2±0.4%
- CRP (C-reactive protein (CRP); week 0 (baseline)): 1.4 ± 0.4 mg/L
- CRP (C-reactive protein (CRP); week 1): 1.1 ± 0.1 mg/L
- CRP (C-reactive protein (CRP); week 4): 1.2 ± 0.2 mg/L
- CRP (C-reactive protein (CRP); week 8): 1.9 ± 0.6 mg/L
- CRP (C-reactive protein (CRP); week 9 (overreaching)): 1.7 ± 0.6 mg/L
- CRP (C-reactive protein (CRP); week 10 (overreaching)): 1.1 ± 0.1 mg/L
- CRP (C-reactive protein (CRP); week 12): 1.2 ± 0.2 mg/L
